This note sets out measurements from ChEMBL document CHEMBL1132754, “Photosensitizers related to purpurin-18-N-alkylimides: a comparative in vivo tumoricidal ability of ester versus amide functionalities” (Bioorg Med Chem Lett, 2000).

For series [1], the system named is Mus musculus. Description: Percent tumor response in mice (implanted with RIF tumor) on day 7 at 24 hours post injection (1.0 umol/kg). It is filed as functional.
Series [2] has as its system Mus musculus. Description: The in vivo tumor uptake was determined by reflectance spectroscopy in mouse. It is filed as functional.
Series [3] can be described thus: Partition coefficient (logP). It is filed as physicochemical. The following applies: octanol/water.
For series [4], the system named is Mus musculus. Description: Tumor versus muscle uptake ratio in mice (implanted with RIFtumor)by in vivo reflectance spectroscopy at 5 min, 24 hr and 48 hr post injection (5.0 umol/kg). The series is classed as functional, Muscle tissue.
Series [5] deals with Mus musculus. Description: Photodynamic therapy response in mice (implanted with RIF tumor) on day 25 after administering the compound (0.4 umol/kg);Tumor regrowth. It is filed as functional, organism-based.
The test system of series [6] is Mus musculus. Description: Photodynamic therapy response in mice (implanted with RIF tumor) on day 10 after administering the compound (0.4 umol/kg); Complete response. The series is classed as functional, organism-based.
Series [7] deals with Mus musculus. Description: Percent tumor response in mice (implanted with RIF tumor) on day 30 after administering the compound (1.0 umol/kg). The series is classed as functional.
Series [8] has as its system Mus musculus. Description: Photodynamic therapy response in mice (implanted with RIF tumor) on day 20 after administering the compound (0.4 umol/kg). The series is classed as functional.
Series [9] has as its system Mus musculus. Description: Photodynamic therapy response in mice (implanted with RIF tumor)after administering the compound (0.4 umol/kg); Decreased. The series is classed as functional, organism-based.
Series [10] concerns Mus musculus. Description: Photodynamic therapy response in mice (implanted with RIF tumor) on day 15 after administering the compound (0.4 umol/kg). It is filed as functional.

Usually logP stands for a log measure of how a compound divides between an organic and an aqueous phase.

Turning to `CCCCCCNC(=O)CC[C@@H]1c2nc(cc3[nH]c(cc4[nH]c(cc5nc6c2C(=O)N(CCCCCC)C(=O)C6=C5C)c(CC)c4C)c(C(C)OCCCCC)c3C)[C@H]1C` (stereo partly specified), the Tumor response in the series on Mus musculus [1] came to 20%. The compound further yielded a Tumor uptake with Mus musculus [2] of 7.33 µM/kg. For the same compound, the lipophilicity (logP) in [3] is given as 11.3. Moreover, in the series on Mus musculus [4], the Ratio stood at 3.32.

In the series on Mus musculus [1], `CCCCCCCCCCOC(C)C1=C(C)c2cc3nc(c4c5[nH]c(cc6[nH]c(cc1n2)c(C)c6CC)c(C)c5C(=O)N(CCCCCC)C4=O)[C@@H](CCC(=O)OC)[C@@H]3C` (stereo partly specified) showed a Tumor response of 100%. In addition, in the series on Mus musculus [2], the Tumor uptake came to 4.2 µM/kg. For the same compound, in the series with Mus musculus [4], the Ratio was found to be 3.23.

In the series on Mus musculus [1], `CCCCCCNC(=O)CC[C@@H]1c2nc(cc3[nH]c(cc4[nH]c(cc5nc6c2C(=O)N(CCCCCC)C(=O)C6=C5C)c(CC)c4C)c(C(C)OC)c3C)[C@H]1C` (stereo partly specified) had a Tumor response of 0%. The same compound came in with a Tumor uptake with Mus musculus [2] of 6.4 µM/kg. Further, in [3], the lipophilicity (logP) came to 9.3. For the same compound, the Ratio in the series on Mus musculus [4] was determined as 4.35.

`CCCCCCNC(=O)CC[C@@H]1c2nc(cc3[nH]c(cc4[nH]c(cc5nc6c2C(=O)N(CCCCCC)C(=O)C6=C5C)c(CC)c4C)c(C(C)OCCC)c3C)[C@H]1C` (stereo partly specified): the Tumor response with Mus musculus [1] turned out to be 67%. Also, the Tumor uptake with Mus musculus [2] was 7 µM/kg. The compound also returned a logP in [3] of 10.3. In the series on Mus musculus [4], the Ratio is 2.69.

In the series with Mus musculus [1], `CCCCCCN1C(=O)c2c3nc(cc4nc(cc5[nH]c(cc6[nH]c2c(c6C)C1=O)c(CC)c5C)C(C(C)OCCCC)=C4C)[C@@H](C)[C@@H]3CCC(=O)OC` (stereo partly specified) had a Tumor response of 100%. In the series on Mus musculus [2], this compound came in with a Tumor uptake of 12.9 µM/kg. The compound also had a logP in [3] of 9.3. Also, in the series with Mus musculus [4], the Ratio is 2.22.

The compound `CCCCCCCCOC(C)C1=C(C)c2cc3nc(c4c5[nH]c(cc6[nH]c(cc1n2)c(C)c6CC)c(C)c5C(=O)N(CCCCCC)C4=O)[C@@H](CCC(=O)OC)[C@@H]3C` (stereo partly specified) had a Tumor response in the series with Mus musculus [1] of 10%. Also, the Tumor uptake in the series on Mus musculus [2] came to 15.7 µM/kg. The same compound gave a logP in series [3] of 11.3. In the series with Mus musculus [4], the Ratio amounted to 2.9.

In the case of `CCCCCCCOC(C)C1=C(C)c2cc3nc(c4c5[nH]c(cc6[nH]c(cc1n2)c(C)c6CC)c(C)c5C(=O)N(CCCCCC)C4=O)[C@@H](CCC(=O)NCCCCCC)[C@@H]3C` (stereo partly specified), the Tumor response with Mus musculus [1] turned out to be 50%. Moreover, the Tumor uptake with Mus musculus [2] turned out to be 6.58 µM/kg. Further, the Ratio in the series on Mus musculus [4] is given as 3.59.

For `CCCCCCOC(C)C1=C(C)c2cc3nc(c4c5[nH]c(cc6[nH]c(cc1n2)c(C)c6CC)c(C)c5C(=O)N(CCCCCC)C4=O)[C@@H](CCC(=O)OC)[C@@H]3C` (stereo partly specified), the Tumor response with Mus musculus [1] came to 100%. Besides, the Tumor uptake in the series with Mus musculus [2] was determined as 7.27 µM/kg. The Response entry in the series with Mus musculus [5] was “Complete response”; in the series with Mus musculus [6], “Complete response”; with Mus musculus [7], 100%; with Mus musculus [8] it was 60%; with Mus musculus [9], “Complete response”; in the series on Mus musculus [10] it was 80%. Besides, the logP in [3] is 10.3. The Ratio with Mus musculus [4] is listed as 8.
